In US7217704B2, “LPA receptor agonists and antagonists and methods of use” (The University of Tennessee Research Foundation, priority 2003, dated 2007):
“Also recorded” adds a separate entry of the source. Read-outs that look alike come from different tables or passages of the source.

Tests used:
[1] = target: T1, LPA2 (Homo sapiens, UniProt Q9HBW0); experiment: Ca2+ transients (agonism / inhibition of LPA response) in RH7777 cells stably expressing LPA2; type: cell-based; details: for effect at LPA2 in words: Ca2+ transients
T1 construct: expressed in transfected cells
T1 sequence (Q9HBW0 whole entry): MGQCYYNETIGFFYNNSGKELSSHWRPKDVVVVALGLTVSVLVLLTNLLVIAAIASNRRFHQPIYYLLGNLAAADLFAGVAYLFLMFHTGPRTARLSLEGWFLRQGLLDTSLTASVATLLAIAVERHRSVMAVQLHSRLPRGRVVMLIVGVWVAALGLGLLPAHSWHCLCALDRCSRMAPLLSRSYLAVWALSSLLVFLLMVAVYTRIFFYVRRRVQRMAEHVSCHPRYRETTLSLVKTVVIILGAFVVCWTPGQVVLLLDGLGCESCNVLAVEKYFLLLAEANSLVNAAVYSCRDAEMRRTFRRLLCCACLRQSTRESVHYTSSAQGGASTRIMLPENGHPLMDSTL
Protocol: (§1) The culture medium (DMEM containing 10% FBS) was then replaced with modified Krebs solution (120 mM NaCl, 5 mM KCl, 0.62 mM MgSO4, 1.8 mM CaCl2, 10 mM HEPES, 6 mM glucose, pH 7.4) and the cells were serum starved for 6–8 hours (12 h for PC-3 cells). Cells were loaded with Fura-2 AM for 35 minutes in modified Krebs medium. The Fura-2 was removed before loading the plate in the FlexStation instrument by replacing the medium once again with 100 μl modified Krebs medium/well. Plates were incubated for 4 minutes in the instrument to allow for warming to 37° C. Changes in intracellular Ca^2+ concentration were monitored by measuring the ratio of emitted light intensity at 520 nm in response to excitation by 340 nm and 380 nm wavelength lights, respectively. Each well was monitored for 80–120 seconds. […] Time courses were recorded using the SoftMax Pro software (Molecular Devices, Sunnyvale, Calif.). Ca^2+ transients were quantified automatically by calculating the difference between maximum and baseline ratio values for each well.
(§2) Each FAP analog was tested for the ability to induce Ca^2+ transients in RH7777 cells transfected with LPA1-3 receptors (agonism), as well as the ability to inhibit LPAinduced Ca^2+ transients in the same cells (antagonism) (Table 3).

[2] = tested on: γ-irradiated mice; experiment: Crypt survival in small intestine after whole body γ-irradiation; type: in vivo; details: 200 μM into the stomach 2 h prior irradiation, crypts counted 3.5 days after irradiation
Protocol: The experimental procedure utilized was substantially the same as that reported in Deng et al. (2002).
The whole body irradiation (WBI) protocol has been reviewed and approved by the ACUC Committee of the University of Tennessee Health Sciences Center. ICR strain male mice (Harlan Laboratories, body weight 30–33 g) on a 12 h light/dark cycle and otherwise maintained on a standard laboratory chow ad libitum were starved for 16 h prior to treatment. WBI was done with a 12 Gy or 15 Gy dose using Cs137 source at a dose rate of 1.9 Gy per minute. Groups of four mice received either 250 μl of 1 mM LPA complexed with 100 μM BSA dissolved in Hanks basal salt solution or the BSA vehicle alone 2 h prior to irradiation.
For detection of the apoptotic bodies, mice were euthanized with carbon dioxide inhalation 4 h after irradiation and the small intestine was dissected and fixed in neutral phosphate buffered isotonic 10% formalin. Four ˜3- to 4-mm long segments from the small intestine were embedded in paraffin, 5 μm thick sections were cut and stained with hematoxilin and eosin. The number of surviving crypts was counted 3.5 days after irradiation.

[3] = target: T2, LPA1 (Homo sapiens, UniProt Q92633); experiment: Ca2+ transients (agonism / inhibition of LPA response) in RH7777 cells stably expressing LPA1; type: cell-based; details: for effect at LPA1 in words: Ca2+ transients
T2 construct: expressed in transfected cells
T2 sequence (Q92633 whole entry): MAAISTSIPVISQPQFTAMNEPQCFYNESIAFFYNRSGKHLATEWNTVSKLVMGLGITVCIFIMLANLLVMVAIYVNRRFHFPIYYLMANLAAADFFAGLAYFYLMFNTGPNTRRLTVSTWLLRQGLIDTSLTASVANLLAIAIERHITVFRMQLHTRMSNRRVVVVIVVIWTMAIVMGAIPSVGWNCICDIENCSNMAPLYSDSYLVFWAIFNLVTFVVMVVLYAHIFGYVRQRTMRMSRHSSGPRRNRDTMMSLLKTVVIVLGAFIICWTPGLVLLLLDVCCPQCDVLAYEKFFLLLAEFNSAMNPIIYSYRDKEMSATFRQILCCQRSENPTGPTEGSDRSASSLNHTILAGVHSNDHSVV
Protocol: as §1, §2

[4] = tested on: PC-3 cells; experiment: Ca2+ transients in PC-3 cells endogenously expressing LPA1-3; type: cell-based, human; details: for IC50: read-out: PC-3 IC50
Protocol: as §1
We tested the FAP analogs in PC-3 cells, which unlike the transfected RH7777 cells endogenously express LPA1-3 receptors.

[5] = tested on: IEC-6 cells; experiment: Camptothecin-induced DNA fragmentation (apoptosis) in IEC-6 cells, ELISA; type: cell-based; details: Camptothecin 20 μM, LPA and FAP12 at 10 μM
Protocol: The experimental procedure utilized was substantially the same as that reported in Deng et al. (2002) and Deng et al., (2003).
Basically, IEC-6 cells were grown in DMEM medium supplemented with 5% fetal bovine serum, insulin (10 μg/ml), gentamycin sulfate (50 μg/ml), and incubated at 37° C. in a humidified 90% air–10% CO2 atmosphere. Medium was changed every other day. Sub-confluent cells were washed twice and replaced by DMEM without serum the night before experiments.
Damage and IEC-6 cell apoptosis was induced via either γ-irradiation or chemotherapy. 20 Gy single dose of [^137Cs] source γ-irradiation was used in all experiments. […] In some experiments, LPA was added at different times before or after irradiation. Treatment with 20 μM camptothecin of IEC-6 cells induces DNA fragmentation as measured by the ELISA assay at 16 h after treatment. DNA fragmentation was quantified using the Cell Death Detection ELISA kit from Boehringer (Indianapolis, Ind.) according to the instructions of the manufacturer. Samples were run in triplicate. A duplicate of the sample was used to quantify protein concentration using the BCA kit from Pierce (Rockford, Ill.). DNA fragmentation was expressed as absorbance units per μg protein per minute.

[6] = target: T3, LPA3 (Homo sapiens, UniProt Q9UBY5); experiment: Ca2+ transients (agonism / inhibition of LPA response) in RH7777 cells stably expressing LPA3; type: cell-based; details: for Ki: read-out: LPA3 (Ki)
T3 construct: expressed in transfected cells
T3 sequence (Q9UBY5 1-353): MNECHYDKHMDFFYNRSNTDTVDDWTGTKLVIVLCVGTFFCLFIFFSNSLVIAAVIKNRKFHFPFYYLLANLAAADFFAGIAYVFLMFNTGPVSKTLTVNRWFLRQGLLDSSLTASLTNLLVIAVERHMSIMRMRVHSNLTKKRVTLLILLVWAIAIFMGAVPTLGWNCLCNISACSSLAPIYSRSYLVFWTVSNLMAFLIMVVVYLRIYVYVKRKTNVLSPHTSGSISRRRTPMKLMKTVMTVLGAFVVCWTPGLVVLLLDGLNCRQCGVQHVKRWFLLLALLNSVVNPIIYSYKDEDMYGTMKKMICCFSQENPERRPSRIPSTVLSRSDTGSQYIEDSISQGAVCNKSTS
Protocol: as §1, §2

[7] = target: T2, LPA1; details: original assay, literature; read-out: reported Ki at LPA1; cited from earlier work
[8] = target: T3, LPA3; details: original assay, literature; read-out: reported Ki at LPA3; cited from earlier work
[9] = target: T4, PPARγ (Homo sapiens, UniProt P37231); experiment: PPARγ activation in CV1 cells, PPRE-Acox-Rluc reporter gene assay; details: 10 μM test compound, 20 h
T4 sequence (P37231 1-505): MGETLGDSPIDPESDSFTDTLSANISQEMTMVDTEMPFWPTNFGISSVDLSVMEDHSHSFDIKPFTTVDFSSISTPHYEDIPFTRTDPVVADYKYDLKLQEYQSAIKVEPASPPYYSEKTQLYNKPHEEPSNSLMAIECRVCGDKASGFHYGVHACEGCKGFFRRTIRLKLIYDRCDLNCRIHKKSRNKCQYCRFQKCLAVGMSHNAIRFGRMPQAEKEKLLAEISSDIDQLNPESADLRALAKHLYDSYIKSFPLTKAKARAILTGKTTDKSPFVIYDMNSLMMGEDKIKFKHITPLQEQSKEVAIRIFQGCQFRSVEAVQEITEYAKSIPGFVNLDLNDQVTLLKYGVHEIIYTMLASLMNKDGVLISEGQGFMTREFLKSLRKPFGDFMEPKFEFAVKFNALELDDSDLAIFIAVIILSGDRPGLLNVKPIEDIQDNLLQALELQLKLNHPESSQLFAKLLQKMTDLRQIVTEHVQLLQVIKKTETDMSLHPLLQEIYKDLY

[10] = target: T1, LPA2; details: GTPγS loading assay, HEK293T; read-out: reported Ki at LPA2; cited from earlier work
[11] = target: T3, LPA3; details: GTPγS loading assay, HEK293T; read-out: reported Ki at LPA3; cited from earlier work
[12] = target: T2, LPA1; details: GTPγS loading assay, HEK293T; read-out: reported Ki at LPA1; cited from earlier work
[13] = induction of Ca2+ transients, RH7777 cells expressing LPA2, read-out: LPA2 EC50
[14] = inhibition of LPA-induced Ca2+ transients, RH7777 cells expressing LPA2, read-out: LPA2 IC50
[15] = induction of Ca2+ transients, RH7777 cells expressing LPA1, read-out: LPA1 EC50
[16] = inhibition of LPA-induced Ca2+ transients, RH7777 cells expressing LPA1, read-out: LPA1 IC50
[17] = induction of Ca2+ transients, RH7777 cells expressing LPA3, read-out: LPA3 EC50
[18] = inhibition of LPA-induced Ca2+ transients, RH7777 cells expressing LPA3
[19] = inhibition of LPA-induced Ca2+ transients, RH7777 cells expressing LPA3, read-out: LPA3 IC50
[20] = inhibition of LPA-induced Ca2+ transients, PC-3 cells

EC50 [1, 13] [nM] | IC50 [1, 14] [nM] | EC50 [3, 15] [nM] | IC50 [3, 16] [nM] | PPARγ activation (PPRE-Acox-Rluc reporter) in words [9] | EC50 [6, 17] [nM] | Ki [6, 18] [nM] | IC50 [6, 19] [nM] | Compound | effect at LPA2 in words ([1]; RH7777 cells expressing LPA2) | effect at LPA1 in words ([3]; RH7777 cells expressing LPA1) | Ki [11] [nM] | Ki [12] [nM] | IC50 [4, 20] [nM] | other results
– | – | – | – | – | – | – | – | CCCCCCCCC=CCCCCCCCCOP(O)(O)=S [Compound 8g, Thiophosphoric acid O-octadec-9-enyl ester] | agonist | agonist | – | – | – | EC50 [1]: 244 nM; IC50 [1]: > 30000 nM; crypt survival in words [2]: enhances crypt survival; crypt survival in words ([2]; listed as FAP 18:1 d9): dose-dependent enhancement of crypt survival; crypt survival in words ([2]; listed as FAP 18:1d9): significantly (P>0.01) enhanced crypt survival; also recorded: present in the jejunum and ileum and exceeded that of LPA; also recorded: dose-dependent crypt survival in the ileum and jejunum; EC50 [3]: 193 nM; IC50 [3]: > 30000 nM; Emax ([3]; RH7777, read-out: LPA1 (Emax)): 80%; LPA1 (Emax) ([3]; maximal efficacy of the drug/maximal efficacy of LPA 18:1): 80%; effect in PC-3 cells in words ([4]; Ca2+ transients, PC-3 cells): no inhibition of LPA response; Emax ([4]; Homo sapiens, PC-3, read-out: PC-3 (Emax)): 30%; inhibition of Camptothecin-induced DNA fragmentation in words [5]: comparable to that of LPA but supersedes it at concentrations above 3 μM; also recorded: dose-dependently inhibit DNA fragmentation; EC50 [6]: 546 nM; IC50 [6]: > 30000 nM; effect at LPA3 in words ([6]; Ca2+ transients, RH7777 cells expressing LPA3): agonist
> 30000 | > 30000 | > 30000 | 5500 | can activate PPRE-Acox-Rluc reporter | > 30000 | 202 | 454 | CCCCCCCC(=O)OC[C@H](COP(=O)(O)OP(=O)(O)O)OC(=O)CCCCCCC [DGPP, reference compound] | – | – | – | – | – | Ki [7]: 6600 nM; Ki [8]: 106 nM; Ki ([3]; RH7777 cells expressing LPA1): 4300 nM
> 30000 | > 30000 | > 30000 | 762 | can activate PPRE-Acox-Rluc reporter | > 30000 | 148 | 301 | Cc1noc(-c2ccc(CSCCC(=O)O)cc2)c1NC(=O)OC(C)c1ccccc1Cl (stereo not shown) [Ki16425, reference compound] | – | – | 360 | 250 | 3380 | Ki [10]: 5600 nM; Ki ([3]; inhibition of LPA-induced Ca2+ transients, RH7777 cells expressing LPA1): 425 nM; Ki [4, 20]: 1740 nM

Compound | EC50 [1, 13] [nM] | IC50 [1, 14] [nM] | EC50 [3, 15] [nM] | IC50 [3, 16] [nM] | PPARγ activation (PPRE-Acox-Rluc reporter) in words [9] | EC50 [6, 17] [nM] | Ki [6, 18] [nM] | IC50 [6, 19] [nM] | effect at LPA2 in words ([1]; RH7777 cells expressing LPA2) | effect at LPA1 in words ([3]; RH7777 cells expressing LPA1) | Ki [11] [nM] | Ki [12] [nM] | IC50 [4, 20] [nM] | other results
CCCCCCCC/C=C\CCCCCCCC(=O)N[C@@H](COP(=O)(O)O)Cc1ccc(OCc2ccccc2)cc1 [VPC12249, reference compound] | > 30000 | > 30000 | > 30000 | > 10000 | can activate PPRE-Acox-Rluc reporter; also recorded: exception | > 30000 | 588 | 1190 | did not affect LPA signaling | weak inhibitor | 428 | 137 | > 10000 | –
